Patent US20040058976A1, “Ophthalmic compositions for treating ocular hypertension” (priority 2003, published 2004)

Tested on: IOP in Dutch Belted Rabbits
Assay: Intraocular pressure (IOP) measurements in conscious Dutch Belted rabbits after topical instillation
Type: in vivo, rabbit
Conditions: for 030 min (Δmm Hg) Treated Mean change in IOP / 60 min (Δmm Hg) Treated Mean change in IOP / 120 min (Δmm Hg) Treated Mean change in IOP / 180 min (Δmm Hg) Treated Mean change in IOP / 240 min (Δmm Hg) Treated Mean change in IOP / 30 min (Δ mm Hg) Treated Mean change in IOP: change from Time 0, n = 24
Procedure: Intraocular pressure measurements (IOP) were performed in conscious adult, pigmented Dutch Belted rabbits (2-4 kg). The animals were allowed free access to standard laboratory diet and tap water, and were housed on a 12 hour light/dark cycle. Seven day rest or washout periods were allowed between assessment of the effects of topically administered treatments on IOP. In order to measure IOP, rabbits were placed in commercially available restraint boxes. Rabbits were conditioned to the restraint boxes on at least two occasions for a period of time ranging up to 6 hours before their first study. On the morning of each experiment, rabbits were placed in restraint boxes for a period of one hour before the first measurement of IOP. IOP was recorded using a pneumatic tonometer (Alcon Applanation Pneumatonograph). Eyelids were gently separated manually and the fingers of the operator were held far enough from the eye to avoid any direct pressure on the eye and surrounding tissues. The membrane of the tonometer was placed on the central part of the cornea. Each measure of IOP lasted 3-5 seconds during which time the animal was completely relaxed. In general, two measures for each eye was sufficient, the first measure being frequently discarded. The tonometer tracing represents the oscillations which correspond to ocular pulsations; the average value of the oscillations corresponded to the level of IOP in mm Hg.
The initial measurement of control IOP was done on a number of rabbits, and 12 rabbits whose control IOP were between 17-25 mm Hg (values of IOP considered to be normal) were selected for study. In each study, the rabbits were separated into two equal subgroups of 6 rabbits each with essentially equivalent control IOPs. Each study consisted of the topical administration of active test substance to one subgroup of 6 rabbits (12 eyes) and vehicle to one subgroup of 6 rabbits (12 eyes); total number of eyes tested per study being 24. In each study, one drop (volume of 50 ul) of active test substance per vehicle was instilled by means of a Hamilton syringe into both eyes of each rabbit at time ) (To). IOPs were re-measured at 30 min, 1 hour, 2 hours, 3 hours and 4 hours after instillation. Results were expressed as mean+/−SD of changes in IOP (mm Hg) from the basal To levels measured just prior to the instillation of active test agent or vehicle. The significance of the data was determined as the difference from the To value using Dunnett's t-test, as well as use of an unpaired Student's t-test for comparisons of changes in IOP between test substance and vehicle at matched time points.
Vehicles consisted of 0.5% […] peanut oil. Formulation of test agents in peanut oil was performed as follows: peanut oil formulations were prepared by dissolving 0.5%, 0.2%, 0.1%, 0.05%, 0.025% or 0.01% (wt./wt) of the test compound in peanut oil. Sonnication was used to obtain complete dissolution of the compound.

[1] = Table 2, 0.1% in peanut oil, topical
[2] = Table 3, 0.1% in peanut oil, topical
[3] = Table 5, 0.1% in peanut oil, topical

COc1ccc2c(c1)c(CC(=O)N(C(=O)NC1CCCCC1)C1CCCCC1)c(C)n2C(=O)c1ccc(Cl)cc1 [Compound 1]
effect on IOP (in words) (0.2% formulated in peanut oil): significant IOP lowering
030 min (Δmm Hg) Treated Mean change in IOP (0.2% in peanut oil, topical, 30 min): −2.0 mm Hg
60 min (Δmm Hg) Treated Mean change in IOP (0.2% in peanut oil, topical): −2.58 mm Hg
120 min (Δmm Hg) Treated Mean change in IOP (0.2% in peanut oil, topical): −2.96 mm Hg
180 min (Δmm Hg) Treated Mean change in IOP (0.2% in peanut oil, topical): −2.42 mm Hg
240 min (Δmm Hg) Treated Mean change in IOP (0.2% in peanut oil, topical): −1.58 mm Hg

CC(C)(O)[C@H]1O[C@H]2CC[C@@]3(C)[C@@](O)(CC[C@H]4Cc5c([nH]c6ccccc56)[C@@]43C)C2=CC1=O [Paxilline]
30 min (Δ mm Hg) Treated Mean change in IOP (Table 2, 0.1% in peanut oil, topical, 30 min): −0.79 mm Hg
60 min (Δmm Hg) Treated Mean change in IOP [1]: −2.67 mm Hg
120 min (Δmm Hg) Treated Mean change in IOP [1]: −2.67 mm Hg
180 min (Δmm Hg) Treated Mean change in IOP [1]: −1.71 mm Hg
240 min (Δmm Hg) Treated Mean change in IOP [1]: −1.38 mm Hg

C=C(C)[C@H]1O[C@H]2CC[C@@]3(C)[C@@](O)(CC[C@H]4[C@@H]5OC(C)(C)[C@H]6C[C@@H]7C(=C)Cc8c(Cl)cc9[nH]c(c5c9c8[C@@]76O)[C@@]43C)[C@@]23O[C@H]3[C@H]1O [Penitrem A]
effect on IOP (in words) (0.1% formulated in peanut oil): significant IOP lowering
30 min (Δ mm Hg) Treated Mean change in IOP (Table 3, 0.1% in peanut oil, topical, 30 min): −1.33 mm Hg
60 min (Δmm Hg) Treated Mean change in IOP [2]: −2.08 mm Hg
120 min (Δmm Hg) Treated Mean change in IOP [2]: −3.91 mm Hg
180 min (Δmm Hg) Treated Mean change in IOP [2]: −2.96 mm Hg
240 min (Δmm Hg) Treated Mean change in IOP [2]: −2.46 mm Hg

CC(C)(C)NC[C@H](O)COc1nsnc1N1CCOCC1 [Timolol Free Base, timolol]
effect on IOP (in words) (0.5% (free base equivalent) formulated in peanut oil): significant IOP lowering
030 min (Δmm Hg) Treated Mean change in IOP (0.5% in peanut oil, topical 50 ul both eyes, 30 min after instillation): −2.63 mm Hg
60 min (Δmm Hg) Treated Mean change in IOP (0.5% in peanut oil, topical): −3.46 mm Hg
120 min (Δmm Hg) Treated Mean change in IOP (0.5% in peanut oil, topical): −3.96 mm Hg
180 min (Δmm Hg) Treated Mean change in IOP (0.5% in peanut oil, topical): −4.21 mm Hg
240 min (Δmm Hg) Treated Mean change in IOP (0.5% in peanut oil, topical): −2.04 mm Hg

Afletrem
030 min (Δmm Hg) Treated Mean change in IOP (Table 5, 0.1% in peanut oil, topical, 30 min): −1.54 mm Hg
60 min (Δmm Hg) Treated Mean change in IOP [3]: −2.04 mm Hg
120 min (Δmm Hg) Treated Mean change in IOP [3]: −2.54 mm Hg
180 min (Δmm Hg) Treated Mean change in IOP [3]: −2.13 mm Hg
240 min (Δmm Hg) Treated Mean change in IOP [3]: −1.42 mm Hg
